Structures can show the parent of a compound that is named as a salt.
Tests used:
Assay type in all cases: biochemical
recombinant human VAP-1 = target: T1, recombinant human VAP-1 (Homo sapiens, UniProt Q16853); assay: Activity evaluation on recombinant human VAP-1 (Amplex Red/HRP-coupled hydrogen peroxide assay, benzylamine substrate); conditions: recombinant human VAP-1; 30 min preincubation at 37° C.; 1 mM benzylamine; read-out: Inhibitory Activity (IC50, nM) human VAP-1
T1 construct: purchased R&D systems
T1 sequence (Q16853 1-763): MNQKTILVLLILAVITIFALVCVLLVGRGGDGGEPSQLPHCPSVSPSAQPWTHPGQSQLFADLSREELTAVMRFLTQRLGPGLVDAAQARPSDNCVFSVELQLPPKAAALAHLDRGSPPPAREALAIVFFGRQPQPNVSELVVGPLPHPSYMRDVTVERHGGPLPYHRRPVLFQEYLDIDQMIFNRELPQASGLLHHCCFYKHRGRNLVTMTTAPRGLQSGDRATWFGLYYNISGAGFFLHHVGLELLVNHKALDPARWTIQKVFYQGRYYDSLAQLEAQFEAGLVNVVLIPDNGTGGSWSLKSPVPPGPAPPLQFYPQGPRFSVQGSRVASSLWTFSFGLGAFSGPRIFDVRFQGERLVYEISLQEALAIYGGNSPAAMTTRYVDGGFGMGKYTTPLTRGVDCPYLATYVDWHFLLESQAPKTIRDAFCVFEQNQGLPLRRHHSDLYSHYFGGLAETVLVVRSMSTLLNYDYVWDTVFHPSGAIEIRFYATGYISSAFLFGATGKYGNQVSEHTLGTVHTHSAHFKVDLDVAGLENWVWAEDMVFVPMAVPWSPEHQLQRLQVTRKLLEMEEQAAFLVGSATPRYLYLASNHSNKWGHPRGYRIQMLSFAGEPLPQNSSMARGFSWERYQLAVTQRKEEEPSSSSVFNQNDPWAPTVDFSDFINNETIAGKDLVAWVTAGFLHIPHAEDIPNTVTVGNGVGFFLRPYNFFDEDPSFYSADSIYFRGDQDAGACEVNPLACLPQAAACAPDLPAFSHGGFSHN
Summary of the method: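 Hydrogen peroxide from benzylamine (1 mM) oxidation by human recombinant VAP-1 detected via HRP-coupled Amplex Red (200 uM) fluorescence, kinetic over 1–2 h. Enzyme and compound preincubated 30 min at 37 °C, pH 7.4 phosphate; 8-point dose response, signal-rate decrease versus DMSO control fitted to four-parameter logistic for IC50.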

[1] = target: T2, recombinant human MAO-A (monoamine oxidase-A) (Homo sapiens, UniProt P21397); assay: Activity evaluation on recombinant human MAO-A (Amplex Red/HRP-coupled assay, 0.5 mM tyramine substrate); conditions: 0.5 mM tyramine, read-out: Inhibitory Activity (IC50, nM) MAO-A
T2 construct: purchased Sigma-Aldrich
T2 sequence (P21397 1-527): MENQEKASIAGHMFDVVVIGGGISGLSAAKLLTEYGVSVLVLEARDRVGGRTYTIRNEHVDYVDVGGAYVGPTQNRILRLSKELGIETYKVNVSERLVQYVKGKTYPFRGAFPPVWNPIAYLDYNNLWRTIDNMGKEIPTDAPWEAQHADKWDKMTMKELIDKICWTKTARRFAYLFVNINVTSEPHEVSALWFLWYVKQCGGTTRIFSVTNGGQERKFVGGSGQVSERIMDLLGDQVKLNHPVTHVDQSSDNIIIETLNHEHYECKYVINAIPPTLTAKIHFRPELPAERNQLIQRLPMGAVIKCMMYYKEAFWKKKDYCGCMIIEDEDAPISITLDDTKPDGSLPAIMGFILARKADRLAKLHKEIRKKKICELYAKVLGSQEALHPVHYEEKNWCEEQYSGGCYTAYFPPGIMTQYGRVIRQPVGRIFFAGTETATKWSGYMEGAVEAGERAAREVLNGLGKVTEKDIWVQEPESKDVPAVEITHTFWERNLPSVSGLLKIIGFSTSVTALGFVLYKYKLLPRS
Summary of the method: (§1)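 Each oxidase is tested with its own substrate: MAO-A with 0.5 mM tyramine, MAO-B with 1 mM benzylamine, DAO with 1 mM putrescine. After 30 min enzyme-compound preincubation at 37 °C, Amplex Red (200 uM) plus HRP (1 U/mL) reports H2O2 as fluorescence; IC50 is fitted from eight-point curves.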

[2] = target: T3, recombinant human MAO-B (monoamine oxidase-B) (Homo sapiens, UniProt P27338); assay: Activity evaluation on recombinant human MAO-B (Amplex Red/HRP-coupled assay, 1 mM benzylamine substrate); conditions: 1 mM benzylamine, read-out: Inhibitory Activity (IC50, nM) MAO-B
T3 construct: purchased Sigma-Aldrich
T3 sequence (P27338 1-520): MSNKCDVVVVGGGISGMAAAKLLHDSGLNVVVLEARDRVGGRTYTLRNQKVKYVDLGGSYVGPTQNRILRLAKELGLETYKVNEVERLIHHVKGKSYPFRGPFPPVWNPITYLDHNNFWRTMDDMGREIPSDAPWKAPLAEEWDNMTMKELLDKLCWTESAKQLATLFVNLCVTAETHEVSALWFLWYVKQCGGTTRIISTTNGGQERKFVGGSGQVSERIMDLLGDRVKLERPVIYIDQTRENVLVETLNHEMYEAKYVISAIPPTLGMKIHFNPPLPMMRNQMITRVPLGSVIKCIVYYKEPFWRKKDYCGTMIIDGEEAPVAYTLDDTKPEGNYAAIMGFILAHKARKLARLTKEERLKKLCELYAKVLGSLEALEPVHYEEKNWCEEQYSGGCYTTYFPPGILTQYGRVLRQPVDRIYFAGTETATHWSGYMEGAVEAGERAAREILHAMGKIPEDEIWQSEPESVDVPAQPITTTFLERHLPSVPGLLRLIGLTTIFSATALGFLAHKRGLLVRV
Summary of the method: as §1

[3] = target: T4, recombinant human DAO (diamine oxidase) (Homo sapiens, UniProt P19801); assay: Activity evaluation on recombinant human DAO (Amplex Red/HRP-coupled assay, 1 mM putrescine substrate); conditions: 1 mM putrescine, read-out: Inhibitory Activity (IC50, nM) DAO
T4 construct: purchased R&D systems
T4 sequence (P19801 20-751): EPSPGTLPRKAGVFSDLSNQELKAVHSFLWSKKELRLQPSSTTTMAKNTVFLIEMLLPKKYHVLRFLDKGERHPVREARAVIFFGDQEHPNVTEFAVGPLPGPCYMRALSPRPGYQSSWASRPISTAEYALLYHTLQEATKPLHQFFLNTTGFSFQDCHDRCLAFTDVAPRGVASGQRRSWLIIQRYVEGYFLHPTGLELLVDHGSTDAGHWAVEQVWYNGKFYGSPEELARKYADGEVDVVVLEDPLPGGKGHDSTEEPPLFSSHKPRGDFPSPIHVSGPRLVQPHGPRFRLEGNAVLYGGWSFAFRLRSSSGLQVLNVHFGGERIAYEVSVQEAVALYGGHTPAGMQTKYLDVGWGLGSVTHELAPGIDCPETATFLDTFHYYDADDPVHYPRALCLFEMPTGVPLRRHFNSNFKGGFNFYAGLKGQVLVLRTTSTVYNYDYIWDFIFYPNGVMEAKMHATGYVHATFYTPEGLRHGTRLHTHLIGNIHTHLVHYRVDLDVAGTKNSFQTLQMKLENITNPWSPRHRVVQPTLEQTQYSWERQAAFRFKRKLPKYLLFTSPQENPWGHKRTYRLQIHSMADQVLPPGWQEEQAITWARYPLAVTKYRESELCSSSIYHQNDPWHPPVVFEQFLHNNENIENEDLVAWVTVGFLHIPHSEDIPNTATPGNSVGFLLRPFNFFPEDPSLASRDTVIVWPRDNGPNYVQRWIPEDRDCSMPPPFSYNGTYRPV
Summary of the method: as §1

Row | SMILES | IC50 (recombinant human VAP-1) [nM] | IC50 [1] [nM] | IC50 [2] [nM] | IC50 [3] [nM]
1 | NCC(Cn1ncn(Cc2ccc(-c3cnc(N)nc3)s2)c1=O)=C(F)F [Example 116, 2-[2-(aminomethyl)-3,3-difluoro-allyl]-4-[[5-(2-aminopyrimidin-5-yl)-2-thienyl]methyl]-1,2,4-triazol-3-one Trifluoroacetate] | 1.4 | > 100000 | > 10000 | > 100000
2 | CCOc1ncc(-c2ccc(Cn3cnn(CC(CN)=C(F)F)c3=O)s2)cn1 [Example 117, 2-[2-(aminomethyl)-3,3-difluoro-allyl]-4-[[5-(2-ethoxypyrimidin-5-yl)-2-thienyl]methyl]-1,2,4-triazol-3-one Trifluoroacetate] | 1.1 | > 100000 | > 100000 | 7100
3 | COCCNc1ncc(-c2ccc(Cn3cnn(CC(CN)=C(F)F)c3=O)s2)cn1 [Example 118, 2-[2-(aminomethyl)-3,3-difluoro-allyl]-4-[[5-[2-(2-methoxyethylamino)pyrimidin-5-yl]-2-thienyl]methyl]-1,2,4-triazol-3-one Trifluoroacetate] | 3.5 | > 100000 | > 100000 | 40000
4 | CCn1cc(-c2ccc(Cn3cnn(CC(CN)=C(F)F)c3=O)s2)cn1 [Example 119, 2-[2-(aminomethyl)-3,3-difluoro-allyl]-4-[[5-(1-ethylpyrazol-4-yl)-2-thienyl]methyl]-1,2,4-triazol-3-one Trifluoroacetate] | 0.5 | > 100000 | 30000 | > 10000
5 | Cn1c(-c2ccc(Cn3cnn(CC(CN)=C(F)F)c3=O)s2)cnc1Cl [Example 120, 2-[2-(aminomethyl)-3,3-difluoro-allyl]-4-[[5-(2-chloro-3-methyl-imidazol-4-yl)-2-thienyl]methyl]-1,2,4-triazol-3-one Trifluoroacetate] | 6 | > 100000 | > 100000 | > 100000
6 | Cn1cc(-c2ccc(Cn3cnn(CC(CN)=C(F)F)c3=O)s2)ccc1=O [Example 121, 5-[5-[[1-[2-(aminomethyl)-3,3-difluoro-allyl]-5-oxo-1,2,4-triazol-4-yl]methyl]-2-thienyl]-1-methyl-pyridin-2-one Trifluoroacetate] | 0.9 | > 100000 | 40000 | > 10000
7 | CCn1cc(-c2ccc(Cn3cnn(CC(CN)=C(F)F)c3=O)s2)ccc1=O [Example 122, 5-[5-[[1-[2-(aminomethyl)-3,3-difluoro-allyl]-5-oxo-1,2,4-triazol-4-yl]methyl]-2-thienyl]-1-ethyl-pyridin-2-one Trifluoroacetate] | 0.4 | > 100000 | 25000 | 54000
8 | CC(C)n1cc(-c2ccc(Cn3cnn(CC(CN)=C(F)F)c3=O)s2)ccc1=O [Example 123, 5-[5-[[1-[2-(aminomethyl)-3,3-difluoro-allyl]-5-oxo-1,2,4-triazol-4-yl]methyl]-2-thienyl]-1-isopropyl-pyridin-2-one Trifluoroacetate] | 0.9 | > 100000 | 56000 | 59000
9 | CN1CC=C(c2ccc(Cn3cnn(CC(CN)=C(F)F)c3=O)s2)CC1 [Example 124, 2-[2-(aminomethyl)-3,3-difluoro-allyl]-4-[[5-(1-methyl-3,6-dihydro-2H-pyridin-4-yl)-2-thienyl]methyl]-1,2,4-triazol-3-one Trifluoroacetate] | 11 | > 100000 | > 100000 | > 100000
10 | CC(=O)N1CC=C(c2ccc(Cn3cnn(CC(CN)=C(F)F)c3=O)s2)CC1 [Example 125, 2-[2-(aminomethyl)-3,3-difluoro-allyl]-4-[[5-(1-acetyl-3,6-dihydro-2H-pyridin-4-yl)-2-thienyl]methyl]-1,2,4-triazol-3-one Trifluoroacetate] | 2.5 | > 100000 | > 100000 | > 100000
11 | NCC(Cn1ncn(Cc2ccc(-c3ccc4c(c3)OCO4)s2)c1=O)=C(F)F [Example 126, 2-[2-(aminomethyl)-3,3-difluoro-allyl]-4-[[5-(1,3-benzodioxol-5-yl)-2-thienyl]methyl]-1,2,4-triazol-3-one Trifluoroacetate] | 0.5 | > 100000 | 760 | > 100000
12 | NCC(Cn1ncn(Cc2ccc(-c3ccc4cn[nH]c4c3)s2)c1=O)=C(F)F [Example 127, 2-[2-(aminomethyl)-3,3-difluoro-allyl]-4-[[5-(1H-indazol-6-yl)-2-thienyl]methyl]-1,2,4-triazol-3-one Trifluoroacetate] | 0.6 | > 100000 | 1070 | > 100000
13 | NCC(Cn1ncn(Cc2ccc(-c3ccn4ncnc4c3)s2)c1=O)=C(F)F [Example 128, 2-[2-(aminomethyl)-3,3-difluoro-allyl]-4-[[5-([1,2,4]triazolo[1,5-a]pyridin-7-yl)-2-thienyl]methyl]-1,2,4-triazol-3-one Trifluoroacetate] | 0.7 | > 100000 | > 100000 | 97000

From patent US11168073B2, “3,3-difluoroallylamines or salts thereof and pharmaceutical compositions comprising the same” (YUHAN CORPORATION, priority 2018, dated 2021)
